Assay results as given in ChEMBL document CHEMBL4837239, “Identification of Thieno[3,2-d]pyrimidine Derivatives as Dual Inhibitors of Focal Adhesion Kinase and FMS-like Tyrosine Kinase 3” (J Med Chem, 2021).
Calls of active or inactive are those of the source. The rule behind the calls is not given here.

How the values were obtained:
[1] = tested on: MDA-MB-231; assay: Growth inhibition of anchorage-Independent human MDA-MB-231 cells assessed as decrease in number of colonies incubated for 72 hrs by MTT assay; format: functional, cell-based; details: dose 1-10 µM
[2] = tested on: MDA-MB-231; assay: Antiproliferative activity against human MDA-MB-231 cells assessed as growth inhibition measured after 72 hrs by CellTiter-Glo assay; format: functional; details: Homo sapiens, MDA-MB-231
[3] = Toxicity in Balb/c mouse xenografted with human MDA-MB-231 cells assessed as change in body weight at 40 to 70 mg/kg, po once daily measured for 16 days; format: organism-based; details: in vivo, 384 h, dose 40-70 mg/kg, time 16 day
[4] = tested on: MDA-MB-231; assay: In vivo antitumor activity against human MDA-MB-231 cells xenografted in Balb/c mouse assessed as reduction in tumor weight at 40 to 70 mg/kg, po once daily measured for 16 days; format: functional, organism-based; details: dose 40-70 mg/kg, time 16.0 day
[5] = molecular target: T1, Mitogen-activated protein kinase; ERK1/ERK2 (Homo sapiens) (UniProt P27361+P28482); assay: Inhibition of ERK1/2 autophosphorylation in human HCT-116 cells at 0.5 to 5 uM incubated for 24 hrs by Western blot analysis; format: cell-based; details: dose 0.5-5 µM
[6] = tested on: MDA-MB-231; assay: In vivo antitumor activity against human MDA-MB-231 cells xenografted in Balb/c mouse assessed as tumor volume at 70 mg/kg, po once daily measured for 16 days (reference value: 600 mm^3); format: functional; details: time 16.0 day
[7] = molecular target: CYP2C9 (Homo sapiens, UniProt P11712); assay: Inhibition of CYP2C9 (unknown origin) at 10 uM relative to control; format: ADME
[8] = tested on: MDA-MB-231; assay: In vivo antitumor activity against human MDA-MB-231 cells xenografted in Balb/c mouse assessed as tumor volume at 40 mg/kg, po once daily measured for 16 days (reference value: 600 mm^3); format: functional; details: time 16.0 day
[9] = Antiproliferative activity against human A375P cells assessed as growth inhibition measured after 72 hrs by CellTiter-Glo assay; format: functional; details: Homo sapiens, A375P
[10] = tested on: HCT-116; assay: Antiproliferative activity against human HCT-116 cells assessed as growth inhibition measured after 72 hrs by CellTiter-Glo assay; format: functional; details: Homo sapiens, HCT-116
[11] = molecular target: T2, CYP1A2 (Homo sapiens, UniProt P05177); assay: Inhibition of CYP1A2 (unknown origin) at 10 uM relative to control; format: ADME
T2 sequence (P05177 whole entry): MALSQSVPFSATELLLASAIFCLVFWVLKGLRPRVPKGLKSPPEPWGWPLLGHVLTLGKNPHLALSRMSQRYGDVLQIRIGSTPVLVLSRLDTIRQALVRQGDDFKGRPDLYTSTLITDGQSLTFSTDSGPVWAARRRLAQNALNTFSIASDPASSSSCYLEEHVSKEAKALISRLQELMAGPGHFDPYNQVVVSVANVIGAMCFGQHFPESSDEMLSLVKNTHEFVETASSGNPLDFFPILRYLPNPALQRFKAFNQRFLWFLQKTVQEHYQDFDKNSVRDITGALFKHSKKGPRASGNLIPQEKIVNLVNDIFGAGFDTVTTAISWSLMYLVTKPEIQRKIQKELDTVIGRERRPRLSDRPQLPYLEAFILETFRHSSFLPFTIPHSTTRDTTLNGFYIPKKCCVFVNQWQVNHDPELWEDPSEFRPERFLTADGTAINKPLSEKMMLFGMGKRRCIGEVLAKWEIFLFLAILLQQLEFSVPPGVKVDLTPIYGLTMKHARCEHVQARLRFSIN

[12] = tested on: MDA-MB-231; assay: Antitumor activity against human MDA-MB-231 cells xenografted in Balb/c mouse assessed as decrease in ki67 at 40 to 70 mg/kg, po once daily measured for 16 days by Immunohistochemical analysis; format: functional, organism-based; details: dose 40-70 mg/kg, time 16.0 day
[13] = molecular target: CYP3A4 (Homo sapiens, UniProt P08684); assay: Inhibition of CYP3A4 (unknown origin) at 10 uM relative to control; format: ADME
[14] = tested on: MDA-MB-231; assay: Induction of apoptosis in human MDA-MB-231 cells assessed as cleaved caspase-3 at 0.1 to 10 uM incubated for 24 hrs by Western blot analysis; format: functional, cell-based; details: dose 0.1-10 µM
[15] = tested on: MDA-MB-231; assay: Induction of apoptosis in human MDA-MB-231 cells assessed apoptotic cell death at 10 uM incubated for 24 hrs by Annexin-V/PI analysis; format: functional, cell-based
[16] = tested on: HCT-116; assay: Induction of apoptosis in human HCT-116 cells assessed as cleaved PARP at 0.1 to 10 uM incubated for 24 hrs by Western blot analysis; format: functional, cell-based; details: dose 0.1-10 µM
[17] = molecular target: CYP2D6 (Homo sapiens, UniProt P10635); assay: Inhibition of CYP2D6 (unknown origin) at 10 uM relative to control; format: ADME
[18] = tested on: MDA-MB-231; assay: Induction of apoptosis in human MDA-MB-231 cells assessed as cleaved PARP at 0.1 to 10 uM incubated for 24 hrs by Western blot analysis; format: functional, cell-based; details: dose 0.1-10 µM
[19] = tested on: MDA-MB-231; assay: Antimetastatic activity against human MDA-MB-231 cells expressing firefly luciferase xenografted NSG orthotopic mouse model assessed as reduction in luminescence intensity at chest region at 70 mg/kg, po once daily measured for 2 weeks; format: functional, organism-based
[20] = tested on: MDA-MB-231; assay: In vivo antitumor activity against human MDA-MB-231 cells xenografted in Balb/c mouse assessed as reduction in tumor mass at 40 to 70 mg/kg, po once daily measured for 16 days; format: functional, organism-based; details: dose 40-70 mg/kg, time 16.0 day
[21] = tested on: HCT-116; assay: Induction of apoptosis in human HCT-116 cells assessed as cleaved caspase-3 at 0.1 to 10 uM incubated for 24 hrs by Western blot analysis; format: functional, cell-based; details: dose 0.1-10 µM
[22] = molecular target: T1, Mitogen-activated protein kinase; ERK1/ERK2 (Homo sapiens); assay: Inhibition of ERK1/2 autophosphorylation in human MDA-MB-231 cells at 0.5 to 5 uM incubated for 24 hrs by Western blot analysis; format: cell-based; details: dose 0.5-5 µM
[23] = tested on: BaF3; assay: Antiproliferative activity against mouse Ba/F3 cells harbouring FLT3 ITD F691I mutant assessed as growth inhibition measured after 72 hrs by CellTiter-Glo assay; format: functional; details: Mus musculus, BaF3
[24] = tested on: BaF3; assay: Antiproliferative activity against mouse Ba/F3 cells harbouring FLT3 ITD D835Y mutant assessed as growth inhibition measured after 72 hrs by CellTiter-Glo assay; format: functional; details: Mus musculus, BaF3
[25] = tested on: BaF3; assay: Antiproliferative activity against mouse Ba/F3 cells harbouring FLT3 D835Y mutant assessed as growth inhibition measured after 72 hrs by CellTiter-Glo assay; format: functional; details: Mus musculus, BaF3
[26] = tested on: BaF3; assay: Antiproliferative activity against mouse Ba/F3 cells assessed as growth inhibition measured after 72 hrs by CellTiter-Glo assay; format: functional; details: Mus musculus, BaF3
[27] = tested on: MV4-11; assay: In vivo antitumor activity against human MV4-11 cells xenografted in mouse assessed as tumor weight at 20 mg/kg, po relative to control; format: functional, organism-based
[28] = tested on: BaF3; assay: Antiproliferative activity against mouse Ba/F3 cells harbouring FLT3 ITD mutant assessed as growth inhibition measured after 72 hrs by CellTiter-Glo assay; format: functional; details: Mus musculus, BaF3
[29] = tested on: BaF3; assay: Antiproliferative activity against mouse Ba/F3 cells harbouring FLT3 ITD F691L mutant assessed as growth inhibition measured after 72 hrs by CellTiter-Glo assay; format: functional; details: Mus musculus, BaF3

T1 sequence (P27361 whole entry, looked up): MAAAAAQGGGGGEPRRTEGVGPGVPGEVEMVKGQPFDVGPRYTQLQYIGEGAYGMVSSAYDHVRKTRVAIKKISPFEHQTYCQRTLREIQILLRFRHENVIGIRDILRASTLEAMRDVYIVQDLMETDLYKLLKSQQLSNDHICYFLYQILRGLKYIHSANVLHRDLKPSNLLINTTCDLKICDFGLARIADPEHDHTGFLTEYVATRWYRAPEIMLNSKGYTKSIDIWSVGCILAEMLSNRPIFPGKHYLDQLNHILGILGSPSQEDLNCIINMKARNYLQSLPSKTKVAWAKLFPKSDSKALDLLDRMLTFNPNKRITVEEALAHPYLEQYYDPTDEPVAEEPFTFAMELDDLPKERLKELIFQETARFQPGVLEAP
T1 sequence (P28482 whole entry, looked up): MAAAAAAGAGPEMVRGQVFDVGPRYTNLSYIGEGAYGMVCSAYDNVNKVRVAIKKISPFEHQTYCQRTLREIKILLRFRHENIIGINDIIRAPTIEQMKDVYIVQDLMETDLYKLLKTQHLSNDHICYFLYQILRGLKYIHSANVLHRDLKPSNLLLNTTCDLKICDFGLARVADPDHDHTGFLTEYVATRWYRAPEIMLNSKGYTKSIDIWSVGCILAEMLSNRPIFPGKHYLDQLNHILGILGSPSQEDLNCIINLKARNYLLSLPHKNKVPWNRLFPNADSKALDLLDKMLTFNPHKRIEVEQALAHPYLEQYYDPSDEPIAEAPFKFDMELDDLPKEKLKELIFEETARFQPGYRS
Chain of CYP2C9 (P11712 whole entry): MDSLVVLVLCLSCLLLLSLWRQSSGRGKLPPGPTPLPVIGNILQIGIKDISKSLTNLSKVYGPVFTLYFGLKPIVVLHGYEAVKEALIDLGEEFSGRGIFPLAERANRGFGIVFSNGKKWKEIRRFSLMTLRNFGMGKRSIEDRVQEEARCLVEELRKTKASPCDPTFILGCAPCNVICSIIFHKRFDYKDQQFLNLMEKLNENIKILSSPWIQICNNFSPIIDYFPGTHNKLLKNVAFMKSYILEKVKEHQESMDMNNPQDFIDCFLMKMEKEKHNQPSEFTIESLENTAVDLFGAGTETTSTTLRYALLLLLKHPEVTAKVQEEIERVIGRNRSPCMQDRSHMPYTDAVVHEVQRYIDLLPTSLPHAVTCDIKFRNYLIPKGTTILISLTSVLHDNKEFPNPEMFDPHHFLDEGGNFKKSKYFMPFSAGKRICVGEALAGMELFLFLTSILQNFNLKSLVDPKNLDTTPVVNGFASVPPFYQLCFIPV
Chain of CYP3A4 (P08684 whole entry): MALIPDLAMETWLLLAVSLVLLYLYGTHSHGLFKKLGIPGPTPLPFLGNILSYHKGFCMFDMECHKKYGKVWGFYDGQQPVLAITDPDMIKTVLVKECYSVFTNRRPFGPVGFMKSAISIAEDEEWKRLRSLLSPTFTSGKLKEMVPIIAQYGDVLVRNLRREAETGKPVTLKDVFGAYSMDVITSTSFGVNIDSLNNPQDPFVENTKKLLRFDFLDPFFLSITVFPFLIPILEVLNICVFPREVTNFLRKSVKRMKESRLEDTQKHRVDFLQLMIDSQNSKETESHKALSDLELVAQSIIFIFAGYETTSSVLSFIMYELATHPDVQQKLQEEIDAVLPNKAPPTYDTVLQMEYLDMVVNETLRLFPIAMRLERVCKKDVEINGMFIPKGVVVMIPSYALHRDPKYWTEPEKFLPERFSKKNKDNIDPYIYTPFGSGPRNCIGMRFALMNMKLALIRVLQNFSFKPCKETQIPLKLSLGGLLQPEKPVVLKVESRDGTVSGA
Chain of CYP2D6 (P10635 whole entry): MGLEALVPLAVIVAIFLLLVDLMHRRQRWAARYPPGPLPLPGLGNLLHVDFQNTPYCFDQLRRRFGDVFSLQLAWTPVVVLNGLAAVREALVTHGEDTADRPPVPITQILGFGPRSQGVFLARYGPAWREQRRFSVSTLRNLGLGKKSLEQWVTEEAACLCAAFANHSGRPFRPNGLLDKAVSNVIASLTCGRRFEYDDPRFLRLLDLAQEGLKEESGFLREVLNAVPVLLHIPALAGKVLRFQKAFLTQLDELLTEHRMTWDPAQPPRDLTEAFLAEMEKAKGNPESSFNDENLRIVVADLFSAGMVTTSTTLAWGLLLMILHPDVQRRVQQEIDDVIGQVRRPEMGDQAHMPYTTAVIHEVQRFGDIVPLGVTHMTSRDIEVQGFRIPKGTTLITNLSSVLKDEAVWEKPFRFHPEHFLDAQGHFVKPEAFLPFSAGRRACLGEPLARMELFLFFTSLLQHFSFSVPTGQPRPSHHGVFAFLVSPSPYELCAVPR

CN(c1ncccc1CNc1nc(Nc2ccc3c(c2)CC(=O)N3)ncc1C(F)(F)F)S(C)(=O)=O [PF-00562271]
growth inhibition (GI) [1]: Active | GI50 [2]: 1950 nM | Activity [3]: Non-Toxic | Activity [4]: Active | inhibition [5]: inactive | Activity [6]: Active | inhibition at 10 µM [7]: 42.7% | Activity [8]: Active | GI50 [9]: 10200 nM | GI50 [10]: 1140 nM | inhibition at 10 µM [11]: 91.2% | Activity [12]: Active | inhibition at 10 µM [13]: 47.2% | Activity [14]: Active | Activity [15]: Active | Activity [16]: Active | inhibition at 10 µM [17]: 90.5% | Activity [18]: Active | Activity [19]: Active | Activity [20]: Active | Activity [21]: Active | inhibition [22]: inactive

CNC(=O)c1cc(Oc2ccc(NC(=O)Nc3ccc(Cl)c(C(F)(F)F)c3)cc2)ccn1 [SORAFENIB]
GI50 [23]: 2640 nM | GI50 [24]: 206 nM | GI50 [25]: 56.5 nM | GI50 [26]: 5420 nM | Activity [27]: Active | GI50 [28]: 2.8 nM | GI50 [29]: 1540 nM
